The values below come from ChEMBL document CHEMBL4673363, “Highly potent, broadly active antifungal agents for the treatment of invasive fungal infections” (Bioorg Med Chem Lett, 2021).

Values after ≈ are worked out from the molar mass of the structure shown.

In assay [1] the test system is Mucor circinelloides. As to the kind of experiment: Antifungal activity against Mucor circinelloides ATCC 26579. In kind it is functional.
Assay [2] relates to Aspergillus fumigatus. As to the kind of experiment: Antifungal activity against Aspergillus fumigatus ATCC 3626. In kind it is functional.
The nature of assay [3]: Antifungal activity against Mucor ramosissimus ATCC 90286. In kind it is functional.
In assay [4] the test system is Aspergillus flavus. As to the kind of experiment: Antifungal activity against Aspergillus flavus ATCC 3631. The format is functional.
Assay [5] deals with Fusarium solani. As to the kind of experiment: Antifungal activity against Fusarium solani ATCC 58877. The format is functional.
A short description of assay [6]: Antifungal activity against Fusarium falciforme ATCC 3636. The format is functional.
Assay [7] has as its system Aspergillus. As to the kind of experiment: Antifungal activity against Aspergillus assessed as inhibition of fungal growth by broth dilution assay. In kind it is functional, organism-based. (Broth dilution looks for growth in wells or tubes with falling amounts of substance.)
The test system of assay [8] is Candida. Nature of the assay: Antifungal activity against Candida assessed as inhibition of fungal growth by broth dilution assay. In kind it is functional, organism-based.
In assay [9] the test system is Rhizopus. Nature of the assay: Antifungal activity against Rhizopus assessed as inhibition of fungal growth by broth dilution assay. The format is functional, organism-based.
For assay [10], the system named is Trichophyton. Nature of the assay: Antifungal activity against Trichophyton after 48 hrs by CLSI-based broth microdilution method. The format is functional.
The test system of assay [11] is Candida. As to the kind of experiment: Antifungal activity against Candida after 48 hrs by CLSI-based broth microdilution method. The format is functional.

In the case of `Cn1c(-c2ccc(C3=CCN(C(=N)N)CC3)cc2)nnc1-c1ccc(C2=CCN(C(=N)N)CC2)c(C(F)(F)F)c1`, the MIC (commonly the least concentration at which growth counts as inhibited) was found to be 0.78 µg/mL (≈ 1.42 µM) in assay [1]; 0.2 µg/mL (≈ 0.364 µM) in assay [2]; 3.13 µg/mL (≈ 5.69 µM) in assay [3]; 0.39 µg/mL (≈ 0.71 µM) in [4]; 0.2 µg/mL (≈ 0.364 µM) in assay [5]; 0.2 µg/mL (≈ 0.364 µM) in assay [6].
Consider `Cc1cc(-c2nnc(-c3ccc(C4=CCN(C(=N)N)CC4)cc3)o2)ccc1C1=CCN(C(=N)N)CC1`, for which the MIC in assay [1] was 25 µg/mL (≈ 51.8 µM); in [2] it was over 25 µg/mL; in assay [3], 25 µg/mL (≈ 51.8 µM); in assay [4], 6.25 µg/mL (≈ 13 µM); in assay [5], 1.56 µg/mL (≈ 3.23 µM); in assay [6] it was 0.39 µg/mL (≈ 0.808 µM).
In the case of `Cn1c(-c2ccc(C3=CCN(C(=N)N)CC3)cc2)cnc1-c1ccc(C2=CCN(C(=N)N)CC2)cc1`, the MIC in assay [1] is 0.78 µg/mL (≈ 1.62 µM); in [2], 0.2 µg/mL (≈ 0.416 µM); in [3], 6.25 µg/mL (≈ 13 µM); in assay [4] it was 0.39 µg/mL (≈ 0.811 µM); in [5] it was 3.13 µg/mL (≈ 6.51 µM); in assay [6], under 0.1 µg/mL.
In the case of `Cc1ccc(Oc2ccccc2-c2csc(N=C3NCCCN3)n2)c(C)c1` [ABAFUNGIN], the MIC in assay [7] (time 48 hrs) and in [8] was 0.5 µg/mL (≈ 1.32 µM) each time.
As to `CC[C@@H]([C@H](C)O)n1ncn(-c2ccc(N3CCN(c4ccc(OC[C@@H]5CO[C@@](Cn6cncn6)(c6ccc(F)cc6F)C5)cc4)CC3)cc2)c1=O` [POSACONAZOLE], the MIC was determined as 1.56 µg/mL (≈ 2.23 µM) in [1]; 0.39 µg/mL (≈ 0.557 µM) in assay [2]; 0.78 µg/mL (≈ 1.11 µM) in assay [3]; 0.78 µg/mL (≈ 1.11 µM) in [4]; 1.56 µg/mL (≈ 2.23 µM) in assay [5]; 0.78 µg/mL (≈ 1.11 µM) in [6].
Regarding `Cc1cc(C2=CCN(C(=N)N)CC2)ccc1-c1nnc(-c2ccc(C3=CCN(C(=N)N)CC3)cc2)o1`, the MIC in assay [1] is 12.5 µg/mL (≈ 25.9 µM); in [2], 0.78 µg/mL (≈ 1.62 µM); in assay [3], 25 µg/mL (≈ 51.8 µM); in assay [4], 0.31 µg/mL (≈ 0.642 µM); in assay [5], 0.78 µg/mL (≈ 1.62 µM); in [6] it was 0.2 µg/mL (≈ 0.414 µM).
For `C[C@@H]1[C@H](O)[C@@H](C)/C=C/C=C/C=C/C=C/C=C/C=C/C=C/[C@H](O[C@@H]2O[C@H](C)[C@@H](O)[C@H](N)[C@@H]2O)C[C@@H]2O[C@](O)(C[C@@H](O)C[C@@H](O)[C@H](O)CC[C@@H](O)C[C@@H](O)CC(=O)O[C@H]1C)C[C@H](O)[C@H]2C(=O)O` [AMPHOTERICIN B], the MIC amounted to 1.56 µg/mL (≈ 1.69 µM) in assay [1]; 3.13 µg/mL (≈ 3.39 µM) in [2]; 3.13 µg/mL (≈ 3.39 µM) in [3]; 3.13 µg/mL (≈ 3.39 µM) in assay [4]; 3.13 µg/mL (≈ 3.39 µM) in [5]; 3.13 µg/mL (≈ 3.39 µM) in [6].
In the case of `Cc1cc(-c2nnc(-c3ccc(C4=CCN(C(=N)N)CC4)c(C)c3)n2C)ccc1C1=CCN(C(=N)N)CC1`, the MIC in assay [1] was 6.25 µg/mL (≈ 12.3 µM); in [2], 0.78 µg/mL (≈ 1.53 µM); in [3], 50 µg/mL (≈ 98.1 µM); in assay [4], 1.56 µg/mL (≈ 3.06 µM); in [5], 0.78 µg/mL (≈ 1.53 µM); in assay [6], 0.78 µg/mL (≈ 1.53 µM).
With `COCCn1c(-c2ccc(C3=CCN(C(=N)N)CC3)cc2)nnc1-c1ccc(C2=CCN(C(=N)N)CC2)cc1`, the MIC in [1] is 0.39 µg/mL (≈ 0.742 µM); in assay [2], 0.1 µg/mL (≈ 0.19 µM); in [3] it was 1.56 µg/mL (≈ 2.97 µM); in [4], 0.2 µg/mL (≈ 0.38 µM); in assay [5], 0.05 µg/mL (≈ 0.0951 µM); in [6], 0.05 µg/mL (≈ 0.0951 µM).
Turning to `Cn1c(-c2ccc(N3CCN(C(=N)N)CC3)cc2)nnc1-c1ccc(N2CCN(C(=N)N)CC2)cc1`, the MIC in assay [1] is over 100 µg/mL; in assay [2], 0.39 µg/mL (≈ 0.8 µM); in assay [3], over 100 µg/mL; in assay [4], 0.78 µg/mL (≈ 1.6 µM); in assay [5], 1.56 µg/mL (≈ 3.2 µM); in assay [6], 0.39 µg/mL (≈ 0.8 µM).
As to `NC(N)=N/N=C/c1ccc(OCc2ccc(Cl)c(Cl)c2)cc1`, the IC50 in [7], in assay [9] and in assay [8] was over 12 µM throughout.
On to `N=C(N)N1CC=C(c2ccc(-c3nnc(-c4ccc(C5=CCN(C(=N)N)CC5)cc4)n3C3CCCCC3)cc2)CC1`, for which the MIC in [1] was found to be 0.39 µg/mL (≈ 0.709 µM); in [2] it was 0.39 µg/mL (≈ 0.709 µM); in [3], 1.56 µg/mL (≈ 2.84 µM); in [4], 0.78 µg/mL (≈ 1.42 µM); in [5] it was 0.39 µg/mL (≈ 0.709 µM); in assay [6] it was 0.2 µg/mL (≈ 0.364 µM).
Consider `N=C(N)N1CC=C(c2ccc(-c3nnc(-c4ccc(C5=CCN(C(=N)N)CC5)cc4)o3)cc2)CC1`, for which the MIC in [1] is 100 µg/mL (≈ 213 µM); in assay [2] it was 3.13 µg/mL (≈ 6.68 µM); in assay [3], 100 µg/mL (≈ 213 µM); in assay [4] it was 3.13 µg/mL (≈ 6.68 µM); in assay [5], 6.25 µg/mL (≈ 13.3 µM); in assay [6], 0.39 µg/mL (≈ 0.832 µM).
As to `Cc1cc(C2=CCN(C(=N)N)CC2)ccc1-c1nnc(-c2ccc(C3=CCN(C(=N)N)CC3)cc2C)n1C`, the MIC is 1.56 µg/mL (≈ 3.06 µM) in assay [1]; 0.78 µg/mL (≈ 1.53 µM) in assay [2]; 6.25 µg/mL (≈ 12.3 µM) in assay [3]; 0.39 µg/mL (≈ 0.765 µM) in [4]; 0.2 µg/mL (≈ 0.392 µM) in assay [5]; 0.78 µg/mL (≈ 1.53 µM) in assay [6].
As for `Cn1c(-c2ccc(C3=CCN(C(=N)N)C3)cc2)nnc1-c1ccc(C2=CCN(C(=N)N)C2)cc1`, the MIC in assay [1] was 0.78 µg/mL (≈ 1.72 µM); in [2] it was 0.2 µg/mL (≈ 0.441 µM); in assay [3], 6.25 µg/mL (≈ 13.8 µM); in assay [4] it was 0.39 µg/mL (≈ 0.86 µM); in assay [5] it was 0.2 µg/mL (≈ 0.441 µM); in [6] it was 0.05 µg/mL (≈ 0.11 µM).
Consider `CCn1c(-c2ccc(C3=CCN(C(=N)N)CC3)cc2)nnc1-c1ccc(C2=CCN(C(=N)N)CC2)cc1`, for which the MIC in assay [1] is 0.2 µg/mL (≈ 0.404 µM); in [2], under 0.012 µg/mL; in assay [3], 0.78 µg/mL (≈ 1.57 µM); in [4], under 0.012 µg/mL; in assay [5] it was under 0.012 µg/mL; in assay [6] it was under 0.012 µg/mL.
On to `N=C(N)N1CC=C(c2ccc(-c3nnc(-c4ccc(C5=CCN(C(=N)N)CC5)cc4)n3Cc3ccccc3)cc2)CC1`, for which the MIC in [1] came out at 1.56 µg/mL (≈ 2.8 µM); in [2], 0.39 µg/mL (≈ 0.699 µM); in assay [3], 3.13 µg/mL (≈ 5.61 µM); in assay [4], 1.56 µg/mL (≈ 2.8 µM); in [5], 0.05 µg/mL (≈ 0.0897 µM); in assay [6], 0.1 µg/mL (≈ 0.179 µM).
Turning to `Cn1c(-c2ccc(C3=CCN(C(=N)N)CC3)cc2)nnc1-c1ccc(C2=CCN(C(=N)N)CC2)cc1`, the MIC in [1] was found to be 0.2 µg/mL (≈ 0.415 µM); in [2], 0.1 µg/mL (≈ 0.208 µM); in assay [3] it was 0.39 µg/mL (≈ 0.81 µM); in assay [4], 0.1 µg/mL (≈ 0.208 µM); in assay [5], 0.024 µg/mL (≈ 0.0498 µM); in [6], 0.024 µg/mL (≈ 0.0498 µM).
As to `Cc1cc(C2=CCN(C(=N)N)CC2)ccc1-c1nnc(-c2ccc(C3=CCN(C(=N)N)CC3)cc2)n1C`, the MIC worked out at 3.13 µg/mL (≈ 6.32 µM) in assay [1]; 0.2 µg/mL (≈ 0.404 µM) in assay [2]; 6.25 µg/mL (≈ 12.6 µM) in assay [3]; 0.39 µg/mL (≈ 0.787 µM) in assay [4]; 0.2 µg/mL (≈ 0.404 µM) in [5]; 0.2 µg/mL (≈ 0.404 µM) in assay [6].
In the case of `Cn1c(-c2ccc(C3CCN(C(=N)N)CC3)cc2)nnc1-c1ccc(C2CCN(C(=N)N)CC2)cc1`, the MIC was over 100 µg/mL in assay [1]; 1.56 µg/mL (≈ 3.21 µM) in assay [2]; over 100 µg/mL in assay [3]; 1.56 µg/mL (≈ 3.21 µM) in assay [4]; 0.78 µg/mL (≈ 1.61 µM) in [5]; 0.78 µg/mL (≈ 1.61 µM) in assay [6].
As for `CC(C)(C)c1cc(C(C)(C)C)c2[nH]c(C(C)(C)C)c(C[C@H](NC(=O)[C@@H](N)CCCNC(=N)N)C(=O)N[C@@H](CCCNC(=N)N)C(=O)NCCc3ccccc3)c2c1` [LTX-109], the MIC was 8 µg/mL (≈ 10.2 µM) in assay [10] and 4 µg/mL (≈ 5.08 µM) in assay [11].
In the case of `Cn1c(-c2ccc(CNC(=N)N)cc2)cnc1-c1ccc(CNC(=N)N)cc1`, the MIC in assay [1], in assay [2], in assay [3], in assay [4], in [5] and in [6] was over 100 µg/mL each time.
